Among the data in PubChem BioAssay AID330 (DTP/NCI, 2004) are T/C values, retold here.

The subject of this assay is P388 leukemia ip, CD2F1 mice, survival T/C. Briefly: NCI In Vivo Anticancer Drug Screen. Data for tumor model P388 Leukemia (intraperitoneal) in CD2F1 (CDF1) mice. Conditions: endpoint: median survival time, higher = longer survival. In a few lines:
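Mice carrying the transplanted tumor received test compound or vehicle. Survival was recorded in each group, and the value is the treated-group measurement divided by that of the vehicle-treated control group.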

The mark [1] stands for this setting: dose: 50.0 mg/kg/injection, schedule: Q01DX009 (ip), vehicle: saline with Tween-80.
The mark [2] stands for this setting: dose: 50.0 mg/kg/injection, schedule: Q01DX009 (ip), vehicle: Klucel (hydroxypropylcellulose) (HPC).
The mark [3] stands for this setting: dose: 100.0 mg/kg/injection, schedule: Q01DX009 (ip), vehicle: Klucel (hydroxypropylcellulose) (HPC).
The mark [4] stands for this setting: dose: 200.0 mg/kg/injection, schedule: Q01DX009 (ip), vehicle: Klucel (hydroxypropylcellulose) (HPC).
The mark [5] stands for this setting: dose: 400.0 mg/kg/injection, schedule: Q04DX003 (ip), vehicle: saline.
Setting [6] is: dose: 50.0 mg/kg/injection, schedule: Q01DX005 (ip), vehicle: Klucel (hydroxypropylcellulose) (HPC).
[7] abbreviates: dose: 100.0 mg/kg/injection, schedule: Q01DX005 (ip), vehicle: Klucel (hydroxypropylcellulose) (HPC).
Setting [8] is: dose: 200.0 mg/kg/injection, schedule: Q01DX005 (ip), vehicle: Klucel (hydroxypropylcellulose) (HPC).
The mark [9] stands for this setting: dose: 60.0 mg/kg/injection, schedule: Q01DX005 (ip), vehicle: saline with Tween-80.
[10] abbreviates: dose: 120.0 mg/kg/injection, schedule: Q01DX005 (ip), vehicle: saline with Tween-80.
The mark [11] stands for this setting: dose: 240.0 mg/kg/injection, schedule: Q01DX005 (ip), vehicle: saline with Tween-80.
Setting [12] is: dose: 50.0 mg/kg/injection, schedule: Q01DX009 (ip), vehicle: saline.
The mark [13] stands for this setting: dose: 12.5 mg/kg/injection, schedule: Q01DX009 (ip), vehicle: saline.
Setting [14] is: dose: 25.0 mg/kg/injection, schedule: Q01DX009 (ip), vehicle: saline.

“And” between values parts separate entries of the source, which are not always exact repeats. Equal entries are not always repeated. Inconclusive results and toxic doses are left out.

With `CCCC[n+]1c(/C=C\c2c(OC)cc(OC)cc2OC)ccc2ccccc21`, the T/C (dose: 0.19 mg/kg/injection, schedule: Q01DX009 (ip), vehicle: Klucel (hydroxypropylcellulose) (HPC)) is 115 % of control; the T/C (dose: 0.39 mg/kg/injection, schedule: Q01DX009 (ip), vehicle: Klucel (hydroxypropylcellulose) (HPC)) was 115 % of control and 122 % of control; the T/C (dose: 0.78 mg/kg/injection, schedule: Q01DX009 (ip), vehicle: Klucel (hydroxypropylcellulose) (HPC)) is 105 % of control.

`NC(CCSSCCC(N)P(=O)(O)O)P(=O)(O)O` (stereo unspecified): the T/C by setting is: (dose: 50.0 mg/kg/injection, schedule: Q01DX005 (ip), vehicle: saline with Tween-80) 95 % of control; (dose: 100.0 mg/kg/injection, schedule: Q01DX005 (ip), vehicle: saline with Tween-80) 92 % of control; (dose: 200.0 mg/kg/injection, schedule: Q01DX005 (ip), vehicle: saline with Tween-80) 99 % of control.

Take `COc1ccc(C2CC(C)(OC)Oc3cc4c(cc32)OCO4)cc1` (stereo unspecified): the T/C is, setting by setting: (dose: 100.0 mg/kg/injection, schedule: Q01DX001 (ip), vehicle: Klucel (hydroxypropylcellulose) (HPC)) 100 % of control; (dose: 200.0 mg/kg/injection, schedule: Q01DX001 (ip), vehicle: Klucel (hydroxypropylcellulose) (HPC)) 94 % of control.

Take `O=C(NCCF)Oc1cc(Cl)c(Cl)cc1Cl`: the T/C is 106 % of control (dose: 6.25 mg/kg/injection, schedule: Q01DX005 (ip), vehicle: Klucel (hydroxypropylcellulose) (HPC)); 107 % of control and 120 % of control (dose: 12.5 mg/kg/injection, schedule: Q01DX005 (ip), vehicle: Klucel (hydroxypropylcellulose) (HPC)).

For `CNP(=O)(OC)Oc1ccc(C(C)(C)C)cc1Cl` (stereo unspecified), the T/C was 112 % of control under setting [1]; 106 % of control (dose: 100.0 mg/kg/injection, schedule: Q01DX009 (ip), vehicle: saline with Tween-80); 115 % of control (dose: 200.0 mg/kg/injection, schedule: Q01DX009 (ip), vehicle: saline with Tween-80).

`CCC(C(=O)O)C(=O)O.[NH-]CC[NH-].[Pt+2]`: the T/C by setting is: (dose: 25.0 mg/kg/injection, schedule: Q01DX009 (ip), vehicle: saline with Tween-80) 190 % of control; (dose: 33.0 mg/kg/injection, schedule: Q04DX003 (ip), vehicle: saline) 120 % of control; under setting [2], 160 % of control; under setting [1], 218 % of control; (dose: 50.0 mg/kg/injection, schedule: Q04DX003 (ip), vehicle: saline with Tween-80) 181 % of control; under setting [3], 205 % of control. Also, the T/C (dose: 100.0 mg/kg/injection, schedule: Q04DX003 (ip), vehicle: saline with Tween-80) is 195 % of control; the T/C under setting [4] is 196 % of control; the T/C under setting [5] was 155 % of control.

Take `Nc1nc(CON2C(=O)c3ccccc3C2=O)cs1`: the T/C under setting [6] is 97 % of control, the T/C under setting [7] was 99 % of control and the T/C under setting [8] is 103 % of control.

Turning to `Nn1nnnc1-c1ccccc1`, the T/C runs as follows: under setting [2], 96 % of control; under setting [3], 100 % of control; under setting [4], 95 % of control.

In the case of `O=C1NN=C(C(O)c2ccccc2)C1(O)c1ccccc1` (stereo unspecified), the T/C was 91 % of control under setting [9]; 103 % of control (dose: 100.0 mg/kg/injection, schedule: Q04DX002 (ip), vehicle: distilled water + alcohol); 98 % of control under setting [10]; 98 % of control (dose: 200.0 mg/kg/injection, schedule: Q04DX002 (ip), vehicle: distilled water + alcohol); 93 % of control under setting [11]; 94 % of control (dose: 400.0 mg/kg/injection, schedule: Q04DX002 (ip), vehicle: distilled water + alcohol).

Regarding `O=C1c2ccccc2C(=O)c2c(NCCNCCNCCO)ccc(NCCNCCNCCO)c21`, the T/C by setting is: (dose: 8.0 mg/kg/injection, schedule: Q01DX009 (ip), vehicle: acid diluted with saline) 94 % of control; (dose: 16.0 mg/kg/injection, schedule: Q01DX009 (ip), vehicle: acid diluted with saline) 101 % of control; (dose: 25.0 mg/kg/injection, schedule: Q01DX009 (ip), vehicle: water) 111 % of control and 120 % of control; (dose: 32.0 mg/kg/injection, schedule: Q01DX009 (ip), vehicle: acid diluted with saline) 96 % of control; (dose: 50.0 mg/kg/injection, schedule: Q01DX009 (ip), vehicle: water) 111 % of control; (dose: 64.0 mg/kg/injection, schedule: Q01DX009 (ip), vehicle: acid diluted with saline) 98 % of control.

Turning to `O=NNc1nc(-c2ccccn2)nc2ccccc12`, the T/C reads like this: (dose: 3.12 mg/kg/injection, schedule: Q01DX009 (ip), vehicle: DMSO) 109 % of control; (dose: 6.25 mg/kg/injection, schedule: Q01DX009 (ip), vehicle: DMSO) 94 % of control; (dose: 12.5 mg/kg/injection, schedule: Q01DX009 (ip), vehicle: DMSO) 105 % of control; (dose: 25.0 mg/kg/injection, schedule: Q01DX009 (ip), vehicle: DMSO) 102 % of control.

As to `CC1C/C=C\COC(=O)CC(C)(C)CC1=O` (stereo unspecified), the T/C (dose: 100.0 mg/kg/injection, schedule: Q04DX003 (ip), vehicle: saline) was 99 % of control; the T/C (dose: 200.0 mg/kg/injection, schedule: Q04DX003 (ip), vehicle: saline) is 99 % of control; the T/C under setting [5] is 95 % of control.

In the case of `ClC1=CC(Cl)=C2N=C(N3CCCC3)N=C3N=C(N4CCCC4)N=C1N32`, the T/C by setting is: (dose: 50.0 mg/kg/injection, schedule: Q01DX005 (ip), vehicle: Klucel + Tween-80) 93 % of control; (dose: 100.0 mg/kg/injection, schedule: Q01DX005 (ip), vehicle: Klucel + Tween-80) 93 % of control; (dose: 200.0 mg/kg/injection, schedule: Q01DX005 (ip), vehicle: Klucel + Tween-80) 90 % of control.

Consider `COc1ccc2c(N)cccc2c1`, for which the T/C by setting is: under setting [12], 92 % of control; (dose: 100.0 mg/kg/injection, schedule: Q01DX009 (ip), vehicle: saline) 88 % of control; (dose: 200.0 mg/kg/injection, schedule: Q01DX009 (ip), vehicle: saline) 95 % of control.

With `COc1cc2c(c(OC)c1)C(O)=C1C(=O)C3C(O)=C(C(=O)NC(C)(C)C)C(=O)C(NC(=S)c4ccccc4)C3CC1C2` (stereo unspecified), the T/C was 92 % of control under setting [9], 94 % of control under setting [10] and 101 % of control under setting [11].

Consider `COc1nc(Nc2cccc(F)c2)nc(OC)n1`, for which the T/C under setting [2] is 98 % of control, the T/C under setting [3] is 95 % of control and the T/C under setting [4] is 101 % of control.

Regarding `CN(C)C(=O)SC1=C(c2c(Cl)cccc2Cl)C(=O)c2ccccc21`, the T/C is 108 % of control and 112 % of control under setting [6]; 99 % of control and 112 % of control under setting [7]; 121 % of control and 122 % of control under setting [8].

`Cc1oc2ccccc2c(=O)c1CN1CCN(C)CC1`: the T/C is 101 % of control (dose: 60.0 mg/kg/injection, schedule: Q01DX005 (ip), vehicle: saline) and 103 % of control (dose: 120.0 mg/kg/injection, schedule: Q01DX005 (ip), vehicle: saline).

As for `COc1c(C(C)C)cc2c(c1OC)C13CCCC(C)(C)C1C(OC3=O)C2NC(=O)C(C)N(C)C` (stereo unspecified), the T/C is, setting by setting: under setting [13], 100 % of control; under setting [14], 98 % of control; under setting [12], 100 % of control.

In the case of `CCN1CC2C3CCC(C)(O3)C2C1` (stereo unspecified), the T/C reads like this: (dose: 50.0 mg/kg/injection, schedule: Q01DX005 (ip), vehicle: saline) 99 % of control; (dose: 100.0 mg/kg/injection, schedule: Q01DX005 (ip), vehicle: saline) 98 % of control; (dose: 200.0 mg/kg/injection, schedule: Q01DX005 (ip), vehicle: saline) 101 % of control.

Turning to `Cc1ccc(C(=O)C=C(C(F)(F)F)C(F)(F)F)cc1`, the T/C is, setting by setting: (dose: 6.25 mg/kg/injection, schedule: Q01DX009 (ip), vehicle: saline) 100 % of control; (dose: 6.25 mg/kg/injection, schedule: Q04DX003 (ip), vehicle: saline) 95 % of control; under setting [13], 100 % of control; (dose: 12.5 mg/kg/injection, schedule: Q04DX003 (ip), vehicle: saline) 95 % of control; under setting [14], 109 % of control; (dose: 25.0 mg/kg/injection, schedule: Q04DX003 (ip), vehicle: saline) 104 % of control.
